Measurements published in ChEMBL document CHEMBL1955773, “Hit to lead SAR study on benzoxazole derivatives for an NPY Y5 antagonist” (Bioorg Med Chem Lett, 2012).

How the values were obtained:
[1] = Total clearance in rat at 0.5 mg/kg, iv and 1 mg/kg, po; type: ADME, organism-based; settings: in vivo
[2] = AUC (0 to infinity) in rat at 0.5 mg/kg, iv and 1 mg/kg, po; type: ADME, organism-based; settings: plasma
[3] = Cmax in rat at 0.5 mg/kg, iv and 1 mg/kg, po; type: ADME, organism-based; settings: in vivo
[4] = Metabolic stability of the compound in rat microsomes assessed as compound remaining after 30 mins; type: ADME, Microsome; settings: read-out: Stability
Cerebrospinal fluid = assay: Drug uptake in rat cerebrospinal fluid at 0.5 mg/kg, iv and 1 mg/kg, po; type: ADME, organism-based; settings: in vivo, read-out: Drug uptake
[5] = Bioavailability in rat at 0.5 mg/kg, iv and 1 mg/kg, po; type: ADME, organism-based; settings: in vivo
[6] = Volume of distribution at steady state in rat at 0.5 mg/kg, iv and 1 mg/kg, po; type: ADME, organism-based; settings: in vivo, read-out: Vdss
[7] = Ratio drug uptake in brain to plasma of rat at 1 mg/kg, po; type: ADME, organism-based; set-up: dose 1 mg/kg, route oral; settings: read-out: BPR

Row | Structure (SMILES) | remaining at 0.5 h [4] [%] | also measured
1 | CCS(=O)(=O)c1ccc2oc(Nc3ccc(N4C[C@@H](C)O[C@@H](C)C4)c(F)c3)nc2c1 | 61 | 
2 | CCS(=O)(=O)c1ccc2oc(Nc3ccc(N4C[C@@H](C)O[C@@H](C)C4)nc3)nc2c1 | 59 | 
3 | CCS(=O)(=O)c1ccc2oc(Nc3ccccc3C(F)(F)F)nc2c1 | 68 | 
4 | CCS(=O)(=O)c1ccc2oc(NC(C)(C)c3ccccc3)nc2c1 | 35 | 
5 | CCS(=O)(=O)c1ccc2oc(Nc3ccc(N4CCOCC4)cc3)nc2c1 | 88 | 
6 | CCS(=O)(=O)c1ccc2oc(Nc3ccc(N4CCOCC4)nc3)nc2c1 | 81 | 
7 | CCS(=O)(=O)c1ccc2oc(Nc3ccc(C(F)(F)F)nc3)nc2c1 | 99 | 
8 | CCS(=O)(=O)c1ccc2oc(Nc3ccc(C(F)(F)F)cn3)nc2c1 | 97 | 
9 | CCS(=O)(=O)c1ccc2oc(NC3CCC(C(C)(C)C)CC3)nc2c1 (mixture of isomers) | 1 | 
10 | CCS(=O)(=O)c1ccc2oc(NC3CCCCC3)nc2c1 | 45 | 
11 | CCS(=O)(=O)c1ccc2oc(Nc3ccc(N4C[C@@H](C)O[C@@H](C)C4)cc3)nc2c1 | 85 | clearance [1]: 33 mL/min/kg; AUC(0-inf) [2]: 260 ng·h/mL; Cmax [3]: 26 ng/mL; concentration (Cerebrospinal fluid): 15.9 nM; bioavailability [5]: 52%; Vd [6]: 1.74 L/kg; Kp [7]: 0.64
12 | CCS(=O)(=O)c1ccc2oc(Nc3cccc(C(F)(F)F)c3)nc2c1 | 63 | 
13 | CCS(=O)(=O)c1ccc2oc(NCc3ccccc3)nc2c1 | 46 | 
14 | C[C@@H]1CN(c2ccc(Nc3nc4ccc(NS(=O)(=O)C(C)(C)C)cc4o3)cc2)C[C@H](C)O1 | 68 | 

Now from value to compound, other results behind:

Row | remaining at 0.5 h [4] [%] | Structure (SMILES) | also measured
15 | 73 | CCS(=O)(=O)c1ccc2oc(Nc3ccc(OC(C)C)cc3)nc2c1 | clearance [1]: 66 mL/min/kg; AUC(0-inf) [2]: 40 ng·h/mL; Cmax [3]: 6 ng/mL; concentration (Cerebrospinal fluid): 8.8 nM; bioavailability [5]: 16%; Vd [6]: 2.62 L/kg; Kp [7]: 2.63
16 | 46 | CCOc1ccc(Nc2nc3cc(S(=O)(=O)C(C)(C)C)ccc3o2)cc1 | 
17 | 81 | CCOc1ccc(Nc2nc3ccc(S(=O)(=O)CC)cc3o2)cc1 | 
18 | 81 | CCS(=O)(=O)c1ccc2oc(Nc3ccc(Cl)cc3)nc2c1 | 
19 | 49 | CCOc1ccc(Nc2nc3cc(S(=O)(=O)C(C)C)ccc3o2)cc1 | 
20 | 59 | CCOc1ccc(Nc2nc3cc(NS(=O)(=O)CC)ccc3o2)cc1 | 
21 | 101 | CCS(=O)(=O)c1ccc2oc(Nc3ccc(C(F)(F)F)cc3)nc2c1 | 
22 | 57 | CCOc1ccc(Nc2nc3ccc(NS(=O)(=O)C(C)(C)C)cc3o2)cc1 | 
23 | 62 | CCOc1ccc(Nc2nc3cc(S(C)(=O)=O)ccc3o2)cc1 | 
24 | 53 | CCS(=O)(=O)c1ccc2oc(Nc3ccccc3)nc2c1 | 
25 | 86 | CCOc1ccc(Nc2nc3ccc(NS(=O)(=O)CC)cc3o2)cc1 | 
26 | 27 | CCS(=O)(=O)c1ccc2oc(Nc3ccc(C(C)(C)C)cc3)nc2c1 | 
27 | 97 | CCS(=O)(=O)c1ccc2oc(Nc3ccc(OC(F)(F)F)cc3)nc2c1 | 
